Assay results from publication PMC12751141, “Disrupting α-Synuclein–ClpP interaction restores mitochondrial function and attenuates neuropathology in Parkinson’s disease models” (Molecular Neurodegeneration, 2025).

Legend:
[1] = tested on: ClpP–αSyn interaction; assay: ClpP–αSyn proximity ligation assay in iPSC-derived neurons; format: cell-based, human; conditions: A53T-αSyn neurons; 1 µM, five days; n = 20 images per group
From the text: PD iPS cells lines (αSyn A53T, NN0004337, donor) and its isogenic corrected control line (NN0004344) were obtained from RUCDR Infinite Biologics. The iPS cells were differentiated into dopaminergic neuron-enriched neuronal culture with the protocol described previously. Briefly, iPS cell colonies were disassociated with accutase (Invitrogen), plated onto 6-well plates pre-coated with 2.5% Matrigel (BD Biosciences) and allowed to reach 80% confluence in mTeSR medium (Stem Cell Technology). For the first 10 days, cells were treated with SB431542 (10 µM; Tocris Bioscience) and Noggin (100 ng/ml) in Neural Media (NM) with FGF2 ([…]) and EGF ([…]). NM media contained: Neurobasal and DMEM/F12 (1:1), B-27 Supplement Minus Vitamin A (50×, Invitrogen), N2 Supplement (100X, Invitrogen), GlutaMAX (Invitrogen, 100×), 100 units/ml penicillin and 100 µg/ml streptomycin (Fisher); for the next 4 days, cells were treated with human recombinant Sonic hedgehog (SHH, 200 ng/ml) in neuronal differentiation medium. Neuronal differentiation medium contained Neurobasal and DMEM/F12 (1:3), B27, N2, GlutaMax and PS. […]
Proximity ligation assay (PLA) was performed using the Duolink® In Situ Starter Kit with Detection Reagents Green (mouse/rabbit; DUO92101, DUO92014). […] PLA puncta were detected as distinct fluorescent spots and imaged by confocal microscopy (Fluoview FV3000; Olympus). […]

[2] = tested on: mThy1-hSNCA mice; assay: Y-maze test in mThy1-hSNCA mice; format: in vivo, mouse
Protocol: C57BL/6 N-Tg (Thy1-SNCA)15Mjff/J (JAX: 017682) breeders (C57Bl/6NJ genetic background) were purchased from Jackson Laboratories. The mice were mated, bred, and genotyped in the animal facility of Case Western Reserve University. All mice were maintained at a 12-hour light/dark cycle (on 6 am, off 6 pm). All randomization and peptide treatments in mThy1-hSNCA mice were prepared by an experimenter not associated with the behavioral and neuropathology analysis. Only male mice were used in the study. mThy1-hSNCA transgenic mice and their age-matched WT littermates were implanted with a 28-day subcutaneous osmotic pump (Alzet, Cupertino CA, Model 2004) containing either TAT control peptide or CS2 peptide, which delivered the peptides at indicated rate (1 or 3 or 10 mg/kg/day). The pump was replaced once every four weeks. All mice were sacrificed at age of 10-month for neuropathology assessment.
On the test day, mice at 6-month-old were brought to the testing room one hour before performing the Y-maze test to allow habituation. The mice were placed in the middle of the Y-maze and allowed to explore the three arms for 4-min. During exploration, the arm entries were recorded. The equipment was cleaned after every test to avoid odor disturbance. Spontaneous alternation was defined as a successive entry into three different arms on overlapping triplet sets.
Fig. 7 CS2 treatment is protective in mThy1-hSNCA mouse model of PD. (A) Experimental schematic of CS2 treatment in mThy1-hSNCA (Thy1) mouse model of PD: TAT or CS2 peptide was administered (3 mg/kg/day) via subcutaneous osmotic pump (O.P.) in Thy1 mice and their wild-type (WT) littermates starting from age of 4-month till 10-month. […] (D) Representative images of pS129-αSyn staining in substantia nigra of WT and Thy1 mice treated with TAT or CS2 peptide (scale bar = 100 μm). […] (G) Representative images of ClpP and tyrosine […] (TH) staining on the brain coronal sections from TAT or CS2-treated Thy1 mice and their WT littermates (scale bar = 100 μm). […]

## CC(C)[C@H](NC(=O)CNC(=O)CNC(=O)CCCCCNC(=O)[C@H](CCCNC(=N)N)NC(=O)[C@H](CCCNC(=N)N)NC(=O)[C@H](CCCNC(=N)N)NC(=O)[C@H](CCC(N)=O)NC(=O)[C@H](CCCNC(=N)N)NC(=O)[C@H](CCCNC(=N)N)NC(=O)[C@H](CCCCN)NC(=O)[C@H](CCCCN)NC(=O)[C@H](CCCNC(=N)N)NC(=O)CNC(=O)[C@@H](N)Cc1ccc(O)cc1)C(=O)N[C@H](C(=O)N[C@H](C(=O)N[C@@H](C)C(=O)O)[C@@H](C)O)C(C)C [CS2, TAT-C6-GGVVTA]
[1]
  ClpP–αSyn interaction by PLA: markedly reduced the ClpP–αSyn interaction
[2]; 3 mg/kg/day s.c., age of 6-month, n = 15 mice/group, vs TAT
  cognitive activity in Y-maze: improved cognitive activity
[2]; 1, 3 or 10 mg/kg/day s.c. osmotic mini pump, 8 weeks from 4 months, tested at 6 months, n = 3 mice/group
  spontaneous alternation, dose dependence: improved spontaneous alternation behavior in a dose-dependent manner
[2]; s.c., 8 weeks, comparison of 3 and 10 mg/kg/day
  spontaneous alternation, 3 vs 10 mg/kg/day: no significant difference between 3 and 10 mg/kg/day
